Test results published in US5153203A, “Quinolone derivatives and salts thereof, preparation processes thereof, and antibacterial agents containing the same” (Wakunaga Seiyaku Kabushiki Kaisha, priority 1989, dated 1992).
In brackets after ≈: the same amount, converted by molar mass.

Assays:
P. aeruginosa (IFO 3445) = test: Minimum inhibitory concentration (MIC), standard method of the Japan Society of Chemotherapy; format: cell-based; conditions: Pseudomonas aeruginosa, IFO3445
Protocol: (§1) With respect to certain representative compounds among the compounds [I] of the present invention, their minimum inhibitory concentrations (MIC; μg/ml) were measured in accordance with the standard method established by the Japan Society of Chemotherapy [CHEMOTHERAPY, 29(1), 76-79 (1981]. The results are summarized in Table 1, in which the compound numbers are as shown in examples.

[1] = test system: E. coli NIH JC-2 (IFO 12734); test: as above; format: cell-based; conditions: Escherichia coli, IFO12734
Protocol: as §1

[2] = test system: S. aureus 209 P (IFO 12732); test: as above; format: cell-based; conditions: Staphylococcus aureus, IFO12732
Protocol: as §1

[3] = Partition coefficient, phosphate buffer/n-octanol; format: physicochemical; conditions: 50 mM phosphate buffer (pH 7.4, μ=0.15)/n-octanol
Protocol: Following the method proposed by Akira Tsuji et al. in Antimicrob. Agents Chemother., 32. 190-194 (1988), 50 mM phosphate buffer (pH 7.4, μ=0.15)/n-octanol partition coefficients were measured.

Compound | MIC (P. aeruginosa (IFO 3445)) | MIC [1] | MIC [2] | logD [3]
CCn1cc(C(=O)O)c(=O)c2cc(F)c(OC3CCN(C)CC3)cc21 [Compound 11, 7-(1-Methyl-4-piperidyloxy)-1-ethyl-6-fluoro-1,4-dihydro-4-oxoquinoline-3-carboxylic acid] | 12.5 µg/mL (≈ 35.9 µM) | 0.78 µg/mL (≈ 2.24 µM) | 1.56 µg/mL (≈ 4.48 µM) | 
Nc1c(F)c(OC2CCNCC2)c(F)c2c1c(=O)c(C(=O)O)cn2C1CC1 [Compound 19] |  |  |  | -0.693
O=C(O)c1cn(C2CC2)c2cc(N3CCOC3)c(F)cc2c1=O [Compound 57, 1-Cyclopropyl-6-fluoro-7-(3-oxazolidinyl)-1,4-dihydro-4-oxoquinoline-3-carboxylic acid] | 0.78 µg/mL (≈ 2.45 µM) | 0.2 µg/mL (≈ 0.628 µM) | 0.1 µg/mL (≈ 0.314 µM) | 
O=C(O)c1cn(C2CC2)c2c(F)c(N3CCCOC3)c(F)cc2c1=O [Compound 76, Cyclopropyl-6,8-difluoro-7-(tetrahydro-1,3-oxazin)-3-yl-1,4-dihydro-4-oxoquinoline-3-carboxylic acid] | 3.13 µg/mL (≈ 8.93 µM) | 0.39 µg/mL (≈ 1.11 µM) | 0.39 µg/mL (≈ 1.11 µM) | 
Cl.O=C(O)c1cn(-c2ccc(F)cc2F)c2nc(OC3CCNC3)c(F)cc2c1=O (centres unmarked) [Compound 10, 7-(3-Pyrrolidinyloxy)-1-(2,4-difluorophenyl)-6-fluoro-1,4-dihydro-4-oxo-1,8-naphthyridine-3-carboxylic acid hydrochloride] | 3.13 µg/mL | 0.78 µg/mL | 1.56 µg/mL | 
Cl.Nc1c(F)c(OC2CCNC2)c(F)c2c1c(=O)c(C(=O)O)cn2C1CC1 (centres unmarked) [Compound 8, 7-(3-Pyrrolidinyloxy)-1-cyclopropyl-5-amino-6,8-difluoro-1,4-dihydro-4-oxoquinoline-3-carboxylic acid hydrochloride] | 0.78 µg/mL | 0.1 µg/mL | 0.39 µg/mL | 
CC1COc2c(OC3CCN(C)CC3)c(F)cc3c(=O)c(C(=O)O)cn1c23 (centres unmarked) [Compound 12, 10-(1-Methyl-4-piperidyloxy)-9-fluoro-2,3-dihydro-3-methyl-7-oxo-7H-pyrido[1,2,3-de][1,4]-benzoxazine-6-carboxylic acid] | 12.5 µg/mL (≈ 33.2 µM) | 1.56 µg/mL (≈ 4.14 µM) | 1.56 µg/mL (≈ 4.14 µM) | 
CCn1cc(C(=O)O)c(=O)c2cc(F)c(N3CCOC3)cc21 [Compound 58] | 6.25 µg/mL (≈ 20.4 µM) | 0.78 µg/mL (≈ 2.55 µM) | 0.39 µg/mL (≈ 1.27 µM) | 
CC1CN(c2cc3c(cc2F)c(=O)c(C(=O)O)cn3C2CC2)CO1 (centres unmarked) [Compound 59] | 0.78 µg/mL (≈ 2.35 µM) | 0.2 µg/mL (≈ 0.602 µM) | 0.1 µg/mL (≈ 0.301 µM) | 
Cl.O=C(O)c1cn(C2CC2)c2cc(OC3CCNC3)c(F)cc2c1=O (centres unmarked) [Compound 1, 7-(3-Pyrrolidinyloxy)-1-cyclopropyl-6-fluoro-1,4-dihydro-4-oxoquinoline-3-carboxylic acid hydrochloride] | 3.13 µg/mL | 0.39 µg/mL | 3.13 µg/mL | 
Cl.O=C(O)c1cn(C2CC2)c2c(F)c(OC3CCNC3)c(F)cc2c1=O (centres unmarked) [Compound 2, 7-(3-Pyrrolidinyloxy)-1-cyclopropyl-6,8-difluoro-1,4-dihydro-4-oxoquinoline-3-carboxylic acid hydrochloride] | 0.78 µg/mL | 0.2 µg/mL | 0.78 µg/mL | 
CC1COc2c(OC3CCNC3)c(F)cc3c(=O)c(C(=O)O)cn1c23.Cl (centres unmarked) [Compound 9, 10-(3-Pyrrolidinyloxy)-9-fluoro-2,3-dihydro-3-methyl-7-oxo-7H-pyrido[1,2,3-de][1,4]-benzoxazine-6-carboxylic acid hydrochloride] | 25 µg/mL | 1.25 µg/mL | 1.56 µg/mL | 
O=C(O)c1cn(C2CC2)c2c(F)c(N3CCOC3)c(F)c(F)c2c1=O [Compound 72, 1-Cyclopropyl-5,6,8-trifluoro-7-(3-oxazolidinyl)-1,4-dihydro-4-oxoquinoline-3-carboxylic acid] | 3.13 µg/mL (≈ 8.83 µM) | 0.39 µg/mL (≈ 1.1 µM) | 0.2 µg/mL (≈ 0.565 µM) | 

Next, values leading:

MIC (P. aeruginosa (IFO 3445)) | MIC [1] | MIC [2] | logD [3] | Compound
1.56 µg/mL (≈ 3.97 µM) | 0.2 µg/mL (≈ 0.508 µM) | 0.2 µg/mL (≈ 0.508 µM) |  | CN(C)CC1CN(c2c(F)cc3c(=O)c(C(=O)O)cn(C4CC4)c3c2F)CO1 (centres unmarked) [Compound 69]
3.13 µg/mL (≈ 8.93 µM) | 0.78 µg/mL (≈ 2.23 µM) | 0.2 µg/mL (≈ 0.571 µM) |  | CC1COCN1c1c(F)cc2c(=O)c(C(=O)O)cn(C3CC3)c2c1F (centres unmarked) [Compound 68]
 |  |  | -0.316 | CCOC(=O)c1cn(C2CC2)c2c(F)c(N3COC(CN(C)C)C3)c(F)cc2c1=O (centres unmarked) [Compound 64]
0.78 µg/mL (≈ 2.13 µM) | 0.1 µg/mL (≈ 0.273 µM) | 0.1 µg/mL (≈ 0.273 µM) |  | O=C(O)c1cn(C2CC2)c2c(F)c(N3COC(CO)C3)c(F)cc2c1=O (centres unmarked) [Compound 74, 1-Cyclopropyl-6,8-difluoro-7-(5-hydroxymethyl-3-oxazolidinyl)-1,4-dihydro-4-oxoquinoline-3-carboxylic acid]
1.56 µg/mL (≈ 4.16 µM) | 0.2 µg/mL (≈ 0.533 µM) | 0.2 µg/mL (≈ 0.533 µM) |  | CN(C)CC1CN(c2cc3c(cc2F)c(=O)c(C(=O)O)cn3C2CC2)CO1 (centres unmarked) [Compound 60]
0.78 µg/mL (≈ 2.23 µM) | 0.2 µg/mL (≈ 0.571 µM) | 0.1 µg/mL (≈ 0.285 µM) |  | CC1CN(c2c(F)cc3c(=O)c(C(=O)O)cn(C4CC4)c3c2F)CO1 (centres unmarked) [Compound 67]
1.56 µg/mL (≈ 4.64 µM) | 0.2 µg/mL (≈ 0.595 µM) | 0.2 µg/mL (≈ 0.595 µM) |  | O=C(O)c1cn(C2CC2)c2c(F)c(N3CCOC3)c(F)cc2c1=O [Compound 66, 1-Cyclopropyl-6,8-difluoro-7-(3-oxazolidinyl)-1,4-dihydro-4-oxoquinoline-3-carboxylic acid]
